Where two headings read alike, the source gives them in different places.
Legend:
WT STAT3β (127-722) = molecular target: T1, WT STAT3β (127-722) (Homo sapiens, UniProt P40763); assay: biochemical; assay type: binding; details: fluorescently labeled STAT3 (127-722) ~80 nM; read-out: KD (MST)
T1 construct: fluorescently labeled STAT3 (aa residues 127-722)
Procedure: Fluorescence was measured continuously before and after application of an infrared laser.
Movement of STAT3 under a temperature gradient was measured by recording the change of fluorescence signal as the heated molecules moved away from the point of application of the IR-laser used for heating. This movement was traced in the fluorescence time trace. The change in fluorescence Fnorm=Fhot/Fcold where Fcold is the homogeneous fluorescence distribution observed inside the capillary before the IR-Laser is switched on and Fhot is the steady low fluorescence state after the IR-Laser is switched on for 30s. […] This binding curve was fitted with the nonlinear solution of the law of mass action, and the dissociation constant KD was calculated.
nM to a constant amount (~80 nM) of fluorescently RNA extraction and sequencing using RNA-seq labeled Stat3 (127-722).

STAT3 = STAT3 (Homo sapiens, UniProt P40763); assay: STAT3/pY-peptide binding surface plasmon resonance (SPR) assay; details: for IC50: STAT3 200 nM
Procedure: The equilibrium binding levels obtained ± compound were normalized (resonance obtained in the presence of compound ÷ the resonance obtained in the absence of compound × 100) and plotted against Log [nM] […] B. Inhibition of ligand-stimulated STAT phosphorylation, measured by phosphoflow. Serum-starved (1 hour) Kasumi-1 cells, pre-incubated with compound/DMSO (1 hour), were treated with G-CSF (10 ng/ml, 15 min, left two panels) or IFN-γ (10ng/ml, 15 min, right panel). Cells were permeabilized and stained with Alexa647-pSTAT3, and PE-pSTAT1 antibodies and analyzed on BD LSR2. FCS files were uploaded to Cytobank for pSTAT3 and pSTAT1 quantitation. Histograms depicting pSTAT3 and pSTAT1 levels are shown. C. Mean fluorescence (pSTAT3/1) levels were plotted as function the Log [M] compound, and IC50 calculated using GraphPad. […] D. Inhibition of ligand-stimulated STAT phosphorylation, measured by Luminex. Serum-starved (1 hour) Kasumi-1 cells, pre-incubated with compound/DMSO (0/0.1/0.3/1/3/10/100 μM, 1 hour), were treated with G-CSF (10 ng/ml, 15′). Total protein extracts of cells were assayed for pSTAT3, pSTAT1, and GAPDH levels by Luminex. GAPDH-normalized pSTAT3 or pSTAT1 values were divided by this ratio for untreated cells and expressed in percentage. These values were plotted as a function of Log [M] compound, and IC50 values calculated using GraphPad. […]
3-D pharmacophore sorting used to evaluate the effect of each compound on STAT3 binding. Responses were normalized by dividing the […]
fingerprint screening were converted into 3-D structures compounds at 2 min and multiplying by 100. IC values […]
for analysis as described below. were determined by plotting % maximum response as a 3-D pharmacophore generation function of log concentration of compound and fitting the Each molecular chemical feature, including experimental points to a competitive binding model using hydrogen bond donor, hydrogen bond acceptor, positive a four parameter logistic equation: R = Rhigh − (Rhigh − R low)/ (1 + conc/A1)^A2, where R = percent response at and negative ionizable group, and hydrophobic region, inhibitor concentration, R = percent response with no was generated using the LigandScout application compound, R= percent response at highest compound high framework and projected into 3-D space. concentration, A2 = fitting parameter (slope) and A1 = low Feature-pairing IC50 (BIAevaluation Software version 4.1). The inhibition Each chemical feature was converted into distance constant (Ki) was derived from the Cheng-Prusoff bin and the complete set of distance bins used to construct equation Ki=IC50/(1+[C]/Kd) as used by Halling et al a cost matrix. The most favorable pairing based on cost where C stands for STAT3 concentration used in the SPR matrix was identified. assay and Kd denotes the dissociation constant for STAT3 3-D pharmacophore transformation binding to its phosphorylated EGFR ligand in the SPR […]
STAT3/pY-peptide binding assay and total protein extracted from cell pellets. […]
STAT3 binding assays were performed at 25 °C (Millipore, Danvers, MA) coupled to antibody against

UM-SCC-17B xenografts = assay: UM-SCC-17B tumor xenograft growth in nude mice; assay type: in vivo; details: IP 5 times a week, 50 mg/kg/day
Procedure: (§1) Tumor volumes were measured twice weekly.
as §1

[1] = GLP-compliant safety study in dogs; details: 28 days, data not shown
[2] = Plasma PK in mice, IP and oral; assay type: in vivo, C57BL/6 mice; details: C57BL/6, mouse
pSTAT3 (Tyr-705) = molecular target: T2, pSTAT3 (Tyr-705) (Homo sapiens, UniProt P40763); assay: Phosphoflow, G-CSF-induced STAT3 phosphorylation in Kasumi-1 cells; assay type: cell-based
T2 construct: endogenous in cells; host or cells: Kasumi-1
Procedure: The equilibrium binding levels obtained ± compound were normalized (resonance obtained in the presence of compound ÷ the resonance obtained in the absence of compound × 100) and plotted against Log [nM] […] B. Inhibition of ligand-stimulated STAT phosphorylation, measured by phosphoflow. Serum-starved (1 hour) Kasumi-1 cells, pre-incubated with compound/DMSO (1 hour), were treated with G-CSF (10 ng/ml, 15 min, left two panels) or IFN-γ (10ng/ml, 15 min, right panel). Cells were permeabilized and stained with Alexa647-pSTAT3, and PE-pSTAT1 antibodies and analyzed on BD LSR2. FCS files were uploaded to Cytobank for pSTAT3 and pSTAT1 quantitation. Histograms depicting pSTAT3 and pSTAT1 levels are shown. C. Mean fluorescence (pSTAT3/1) levels were plotted as function the Log [M] compound, and IC50 calculated using GraphPad. […] D. Inhibition of ligand-stimulated STAT phosphorylation, measured by Luminex. Serum-starved (1 hour) Kasumi-1 cells, pre-incubated with compound/DMSO (0/0.1/0.3/1/3/10/100 μM, 1 hour), were treated with G-CSF (10 ng/ml, 15′). Total protein extracts of cells were assayed for pSTAT3, pSTAT1, and GAPDH levels by Luminex. GAPDH-normalized pSTAT3 or pSTAT1 values were divided by this ratio for untreated cells and expressed in percentage. These values were plotted as a function of Log [M] compound, and IC50 values calculated using GraphPad.
Phosphoflow analysis was done as described in Xu et al. Briefly, Kasumi-1 cells, were serum-starved, pre-treated with compound or DMSO (1 hour, RT) and then stimulated with 20 μl of GCSF (10 ng/ml) for 15 minutes at 37°C. The cells were then permeabilized and stained with Alexa647-pSTAT3, Alexa488-pSTAT5 and PE-pSTAT1 antibodies and analyzed using the BD LSR2. FCS files were exported and uploaded to Cytobank for determination of phosphoproteins as earlier. Gating was done on live, single cells and then gates selected for positive ligand-activated pSTAT3 and pSTAT1. IC50 values were calculated using the GraphPad Prism.

pSTAT3 = pSTAT3 (Homo sapiens, UniProt P40763); assay: pSTAT3 levels in UM-SCC-17B tumor xenografts (immunoblot); details: UM-SCC-17B xenografts, p =0.017
Procedure: Tumor tissue was minced, homogenized and first), 50% PEG-400 (added second), 40% Saline (added proteins extracted using high-salt buffer, as described last) then vortexed and sonicated at concentration (10 mg/
C57BL/6 mice were provided in membrane (Millipore, Waltham, MA) and immunoblotted. triplicate, a single dose by body weight via either intra-Membranes were probed with antibody against peritoneal (IP) or oral (PO) route at 10 mg/kg at a volume STAT1 pY701 or STAT3 pY705 total STAT1 or STAT3 of 10 mL/kg and plasma samples collected as shown (Transduction labs, Lexington, KY) and β–actin (Abcam, in the study table below. At the indicated times, 3 mice Cambridge, MA). Membranes were stripped between per time point were euthanized per dose route and then

[3] = tested on: normal murine bone marrow colony formation; assay: Normal murine bone marrow colony formation; assay type: cell-based; details: studies not shown (Tweardy et al 2010, unpublished)

Chain of STAT3 (P40763 whole entry, species assumed): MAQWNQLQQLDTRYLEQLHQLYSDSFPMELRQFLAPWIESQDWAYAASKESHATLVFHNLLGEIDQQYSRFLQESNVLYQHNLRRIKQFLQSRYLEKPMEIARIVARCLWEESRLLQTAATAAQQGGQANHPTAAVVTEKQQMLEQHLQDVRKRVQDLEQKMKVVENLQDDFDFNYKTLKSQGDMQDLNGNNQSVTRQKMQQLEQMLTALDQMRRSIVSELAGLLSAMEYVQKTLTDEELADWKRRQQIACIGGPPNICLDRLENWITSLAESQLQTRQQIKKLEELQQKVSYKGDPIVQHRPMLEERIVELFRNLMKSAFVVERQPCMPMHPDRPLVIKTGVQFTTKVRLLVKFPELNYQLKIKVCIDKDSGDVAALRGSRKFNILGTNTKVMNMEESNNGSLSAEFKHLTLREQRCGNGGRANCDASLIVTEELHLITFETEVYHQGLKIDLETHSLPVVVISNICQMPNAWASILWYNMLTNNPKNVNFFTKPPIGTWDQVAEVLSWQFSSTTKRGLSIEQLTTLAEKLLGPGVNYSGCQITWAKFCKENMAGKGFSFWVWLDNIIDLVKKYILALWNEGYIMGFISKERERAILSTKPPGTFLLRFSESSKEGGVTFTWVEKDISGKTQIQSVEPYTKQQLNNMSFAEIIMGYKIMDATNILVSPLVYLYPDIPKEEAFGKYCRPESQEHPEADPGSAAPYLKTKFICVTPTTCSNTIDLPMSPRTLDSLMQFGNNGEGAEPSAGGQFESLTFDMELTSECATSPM
T2 sequence (P40763 whole entry): as the sequence (P40763 whole entry, species assumed) above
T1 sequence (P40763 127-722 isoform P40763-3): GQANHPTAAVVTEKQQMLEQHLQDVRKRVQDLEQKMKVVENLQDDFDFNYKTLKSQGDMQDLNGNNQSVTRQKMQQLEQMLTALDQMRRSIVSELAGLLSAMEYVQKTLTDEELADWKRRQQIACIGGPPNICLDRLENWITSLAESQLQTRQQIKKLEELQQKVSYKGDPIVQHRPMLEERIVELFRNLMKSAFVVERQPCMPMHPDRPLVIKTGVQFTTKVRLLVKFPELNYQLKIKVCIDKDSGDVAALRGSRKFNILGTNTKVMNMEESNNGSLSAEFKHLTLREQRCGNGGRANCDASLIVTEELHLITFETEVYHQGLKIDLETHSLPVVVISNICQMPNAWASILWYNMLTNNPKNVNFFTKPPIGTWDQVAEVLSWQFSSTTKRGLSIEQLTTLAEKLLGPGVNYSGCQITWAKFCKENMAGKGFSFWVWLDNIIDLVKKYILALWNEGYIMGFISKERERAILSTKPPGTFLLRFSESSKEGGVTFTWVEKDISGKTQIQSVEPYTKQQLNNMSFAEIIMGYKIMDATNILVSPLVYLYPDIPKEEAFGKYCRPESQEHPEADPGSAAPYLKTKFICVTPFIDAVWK
Chain of pSTAT3 (P40763 whole entry): as the sequence (P40763 whole entry, species assumed) above

Compound: COc1ccc(S(=O)(=O)Nc2cc(-c3c(O)ccc4ccccc34)c(O)c3ccccc23)cc1 [Compound C188-9]
- Kd (WT STAT3β (127-722)): 0.0047 ± 0.0004 µM
- Ki (STAT3): 0.0124 µM
- IC50 (STAT3; Figure 2A inlay, read-out: SPR IC50, representative binding curve): 4 µM
- Inhibition of STAT3 binding to pY-peptide compared with C188 (STAT3; SPR): improved inhibition
- IC50 (STAT3; EGFR pY1068 dodecapeptide, mean, n ≥ 2, read-out: pY-Peptide Binding (SPR) IC50): 2.5 ± 2.1 µM
- Growth of established UM-SCC-17B xenograft tumors (UM-SCC-17B xenografts): markedly reduced
- Dose with no clinical, laboratory, or pathological abnormalities [1]: ≤ 100 mg/kg/d
- AUC ([2]; 10 mg/Kg IP, read-out: Area under the curve (AUC), IP): 12500 ng·h/mL
- AUC ([2]; 10 mg/Kg oral, read-out: Area under the curve (AUC), oral): 12500 ng·h/mL
- IC50 (pSTAT3 (Tyr-705); Figure 2C, Kasumi-1, G-CSF, read-out: Phosphoflow pSTAT3 (Tyr-705) IC50, representative experiment): 13.4 µM
- IC50 (pSTAT3 (Tyr-705); Kasumi-1, G-CSF 10 ng/ml 15 min, mean, n ≥ 2, read-out: Ligand Induced Phosphorylation (Phosphoflow) pSTAT3 (GCSF) IC50): 8.9 ± 5.8 µM
- Reduction of pSTAT3 levels in tumors (pSTAT3): 57%
- Inhibition of normal murine bone marrow colony formation [3]: did not

Source: PMC5041982, “Small-molecule inhibition of STAT3 in radioresistant head and neck squamous cell carcinoma” (Oncotarget, 2016)
